Measurements published in PMC10487625, “Betaxolol as a Potent Inhibitor of NDM-1-Positive E. coli That Synergistically Enhances the Anti-Inflammatory Effect in Combination with Meropenem” (International Journal of Molecular Sciences, 2023).

Target: T1, New Delhi metallo-β-lactamase (NDM-1) (Escherichia coli, UniProt E5KIY2)
T1 construct: gene blaNDM-1; recombinant NDM-1 purified from E. coli BL21(DE3)-pET-32a(+)-blaNDM-1
Assay: nitrocefin hydrolysis assay with purified NDM-1, OD492
Format: biochemical

T1 sequence (E5KIY2 29-270 limits assumed): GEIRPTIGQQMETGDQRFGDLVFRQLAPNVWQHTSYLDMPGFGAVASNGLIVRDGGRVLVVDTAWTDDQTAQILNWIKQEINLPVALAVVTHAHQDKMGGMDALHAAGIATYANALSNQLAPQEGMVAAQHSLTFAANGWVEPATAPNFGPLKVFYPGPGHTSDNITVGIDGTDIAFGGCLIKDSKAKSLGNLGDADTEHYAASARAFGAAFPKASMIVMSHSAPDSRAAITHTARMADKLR

In the case of `CC(C)NCC(O)COc1ccc(CCOCC2CC2)cc1` (stereo not shown) [BET, betaxolol], the IC50 is reported as 19.3 ± 0.9 µM.
